The results in this text go back to US10030016B2 (Sunesis Pharmaceuticals, Inc., priority 2009, dated 2018).

Where a name gives a salt, the structure may show the parent alone. Read-outs that look alike come from different tables or passages of the source. Some results are limits rather than exact numbers.

One test deals with PDK1 (Homo sapiens (Human), UniProt O15530). As to the kind of experiment: PDK1 kinase assay (coupled PDK1/AKT/FAM-crosstide assay, IMAP fluorescence polarization). Format: biochemical. In short, it runs like this: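 GST-tagged PDK1 (aa 51-359, 0.75 nM) was coupled to unphosphorylated GST-AKT2 140-467-PIFtide (10 nM) and 100 nM FAM-crosstide at 40 μM ATP, in Tris pH 7.2 buffer, for 30 min at 25 °C. Crosstide phosphorylation was read by IMAP fluorescence polarization (ΔmP) and fitted with a 4-parameter curve.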
Sequence of PDK1 (O15530 51-359): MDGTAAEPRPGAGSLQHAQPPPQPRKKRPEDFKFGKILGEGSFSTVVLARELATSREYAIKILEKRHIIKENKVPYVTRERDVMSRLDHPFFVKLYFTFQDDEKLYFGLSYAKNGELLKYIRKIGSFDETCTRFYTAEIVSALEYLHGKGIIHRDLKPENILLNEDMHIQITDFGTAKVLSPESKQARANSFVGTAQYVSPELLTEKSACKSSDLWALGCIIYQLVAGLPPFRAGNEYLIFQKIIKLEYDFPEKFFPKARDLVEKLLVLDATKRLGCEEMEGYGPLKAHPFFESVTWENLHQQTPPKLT

The subject of test [1] is phospho-akt (Thr308) in PC-3 cells. As to the kind of experiment: Inhibition of phospho-akt (Thr308) in PC-3 cells, MSD phospho-akt 308 ELISA kit. Format: cell-based. The settings on record: 2 hours, no serum, read-out: EC50. In short, it runs like this:
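Phospho-Akt (Thr308) levels were measured by MSD ELISA after PC-3 cells received compound for 2 hours in serum-free medium. Controls: DMSO (high), 5 μM wortmannin (low).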
(In general: An ELISA detects its analyte on a solid surface through an enzyme-linked reagent.)

Where [2] appears, read: inhibition of phospo-PDK1 in vitro.
Setting [3] is: Homo sapiens, inhibition of P308 Akt in PC-3 cells, MSD.
Setting [4] is: inhibition of P308 Akt in PC-3 cells using MSD.
The mark [5] stands for this setting: Homo sapiens, inhibition of P308 Akt in PC-3 cells using MSD.

As a reminder, the IC50 is the concentration that gives 50% inhibition. Read a low IC50 as greater potency in that assay. As usually defined, the EC50 is the midpoint of the concentration-response curve. On to `C[C@H](NC(=O)c1cccnc1NCc1ccc(-c2ccc3ncnc(N4CC(O)C4)c3c2)s1)c1ccc(F)c(F)c1` [Example 4.34], for which, at PDK1 (setting [2]), the IC50 was under 0.1 µM. In addition, the EC50 in test [1] (setting [3]) lay in the range of 1 to 10 µM.

Take `C[C@@H](c1ccc(F)c(F)c1)n1cnc2c(C#N)cnc(NCc3ccc(-c4ccc5ncnc(N)c5c4)s3)c2c1=O` [Ex. 7.25, (S)-5-(((5-(4-aminoquinazolin-6-yl)thiophen-2-yl)methyl)amino)-3-(1-(3,4-difluorophenyl)ethyl)-4-oxo-3,4-dihydropyrido[4,3-d]pyrimidine-8-carbonitrile]: at PDK1 (setting [2]), the IC50 was under 0.1 µM. Besides, in test [1] (setting [3]), the EC50 is under 1 µM.

For `Nc1ncnc2ccc(-c3ccc(CNc4nc5c(cc4C(=O)NCc4ccc(F)c(F)c4)CCC5)s3)cc12` [Ex. 8.15.1, 2-({[5-(4-aminoquinazolin-6-yl)thiophen-2-yl]methyl}amino)-N-(3,4-difluorobenzyl)-6,7-dihydro-5H-cyclopenta [b]pyridine-3-carboxamide], the IC50 against PDK1 (setting [2]) was 0.1 to 1 µM. The EC50 in test [1] (setting [3]) was 1 to 10 µM.

`CC(C)(C)NS(=O)(=O)c1cnc(NCc2ccc(-c3ccc4ncnc(N)c4c3)s2)c(C(=O)NCc2ccc(F)c(F)c2)c1` [Example 8.6.20, 2-(((5-(4-aminoquinazolin-6-yl)thiophen-2-yl)methyl)amino)-5-(N-tert-butylsulfamoyl)-N-(3,4-difluorobenzyl)nicotinamide] gave an IC50 at PDK1 (setting [2]) of 0.1 to 1 µM. Also, the EC50 in test [1] (setting [3]) was over 10 µM.

As to `CC(N)CCc1nc(-c2ccc(CNc3ncc(C(F)(F)F)cc3C(=O)Nc3ccc(F)cc3)cc2)cnc1N` (stereo not shown) [Example 86, 2-{4-[5-Amino-6-(3-amino-butyl)-pyrazin-2-yl]-benzylamino}-N-(4-fluoro-phenyl)-5-trifluoro-methyl-nicotinamide], the IC50 against PDK1 (inhibition of PDK1 in vitro) was under 0.1 µM. Moreover, the EC50 in test [1] (setting [4]) is under 1 µM.

Molecule `C[C@H](NC(=O)c1cccnc1NCc1ccc(-c2ccc3ncnc(N)c3c2)s1)c1ccc(F)cc1` [Example 3.15, 2-({[5-(4-aminoquinazolin-6-yl)thiophen-2-yl]methyl}amino)-N-[(1S)-1-(4-fluorophenyl)ethyl] pyridine-3-carboxamide] displayed an IC50 at PDK1 (setting [2]) of 0.1 to 1 µM. In addition, the EC50 in test [1] (setting [3]) is under 1 µM.

Molecule `CCC(=O)Nc1cnc(NCc2ccc(-c3ccc4ncnc(N)c4c3)s2)c(C(=O)NCc2ccc(F)c(F)c2)c1` [Example 8.5.2, 2-({[5-(4-aminoquinazolin-6-yl)thiophen-2-yl]methyl}amino)-N-(3,4-difluorobenzyl)-5-(propanoylamino)pyridine-3-carboxamide] came in with an IC50 against PDK1 (setting [2]) of under 0.1 µM. Also, the EC50 in test [1] (setting [3]) is 1 to 10 µM.

As to `COc1cccc(NC(=O)c2cc(C(F)(F)F)cnc2NCc2ccc(-c3cnc4[nH]nc(N)c4c3)cc2)c1` [Example 301, 2-(4-(3-amino-1H-pyrazolo [3,4-b]pyridin-5-yl)benzylamino)-N-(3-methoxyphenyl)-5-(trifluoromethyl)nicotinamide], at PDK1 (inhibition of PDK1 in vitro), the IC50 was under 0.1 µM. The EC50 in test [1] (setting [5]) lay within 1 to 10 µM.

Regarding `C[C@H](NC(=O)c1nc(C#N)cnc1NCc1ccc(-c2cnc(N)c(N3CCNCC3)n2)cc1)c1ccc(F)c(F)c1` [Example 192, 3-[4-(3′-Amino-3,4,5,6-tetrahydro-2H-[1,2′]bipyrazinyl-6′-yl)-benzylamino]-6-cyano-pyrazine-2-carboxylic acid [(S)-1-(3,4-difluoro-phenyl)-ethyl]-amide], the half-maximal inhibitory concentration (IC50) on PDK1 (inhibition of PDK1 in vitro) is under 0.1 µM. Moreover, the concentration giving a half-maximal response (EC50) in test [1] (setting [5]) lay in the range of 1 to 10 µM.

`C[C@H](NC(=O)c1cc(C#N)cnc1NCc1ccc(-c2nc3c(N)ncnc3[nH]2)cc1)c1ccc(F)cc1` [Example 113, (S)-2-(4-(6-amino-9H-purin-8-yl)benzylamino)-5-cyano-N-(1-(4-fluorophenyl)ethyl) nicotinamide] showed an IC50 at PDK1 (inhibition of PDK1 in vitro) of under 0.1 µM. The EC50 in test [1] (setting [4]) is over 10 µM.

The molecule `C[C@H](NC(=O)c1cccnc1NCc1ccc(-c2ccc3nccnc3c2)s1)c1ccc(F)c(F)c1` [Example 4.31] yielded an IC50 against PDK1 (setting [2]) of over 5 µM. Besides, the EC50 in test [1] (setting [3]) was over 10 µM.

Consider `COCCCNc1cnc(-c2ccc(CNc3ncc(C#N)cc3C(=O)N[C@@H](C)c3ccc(F)cc3)cc2)cn1` [Example 228, 5-Cyano-N-[(S)-1-(4-fluoro-phenyl)-ethyl]-2-{4-[5-(3-methoxy-propylamino)-pyrazin-2-yl]-benzylamino}-nicotinamide], for which the IC50 on PDK1 (inhibition of PDK1 in vitro) was in the range of 1 to 5 µM. Also, the EC50 in test [1] (setting [5]) was over 10 µM.

In turn, `CN(C)CCCn1cc(-c2ccc(CNc3ncc(C(F)(F)F)cc3C(=O)NCc3ccc(F)c(F)c3)cc2)c2c(N)ncnc21` [Example 55, 2-(4-(4-amino-7-(3-(dimethylamino)propyl)-7H-pyrrolo[2,3-d]pyrimidin-5-yl)benzylamino)-N-(3,4-difluorobenzyl)-5-(trifluoromethyl)nicotinamide] had an IC50 at PDK1 (inhibition of PDK1 in vitro) of under 0.1 µM. Moreover, the EC50 in test [1] (setting [5]) is under 1 µM.

Take `N#Cc1cnc(NCc2ccc(-c3cnc4[nH]nc(N)c4c3)cc2)c(C(=O)Nc2ccc(Cl)cc2)n1` [Example 426, 3-(4-(3-amino-1H-pyrazolo[3,4-b]pyridin-5-yl)benzylamino)-N-(4-chlorophenyl)-6-cyanopyrazine-2-carboxamide]: the IC50 on PDK1 (inhibition of PDK1 in vitro) was under 0.1 µM. The concentration for a half-maximal effect (EC50) in test [1] (setting [5]) was under 1 µM.

On to `C[C@H](NC(=O)c1cc(C#N)cnc1NCc1ccc(-c2cnc(N)c(C(=O)O)n2)cc1)c1ccc(F)cc1` [Example 207, (S)-3-amino-6-(4-((5-cyano-3-(1-(4-fluorophenyl)ethylcarbamoyl)pyridin-2-ylamino)methyl)phenyl)-pyrazine-2-carboxylic acid], for which the IC50 against PDK1 (inhibition of PDK1 in vitro) is under 0.1 µM. In test [1] (setting [5]), the EC50 was over 10 µM.

As for `C[C@@H](Nc1ncc(C(F)(F)F)cc1C(=O)Nc1ccc(F)cc1)c1ccc(-c2cnc3[nH]nc(N)c3c2)cc1` [Example 422, 2-{(R)-1-[4-(3-Amino-1H-pyrazolo[3,4-b]pyridin-5-yl)-phenyl]-ethylamino}-N-(4-fluoro-phenyl)-5-trifluoromethyl-nicotinamide], the concentration for half-maximal inhibition (IC50) on PDK1 (inhibition of PDK1 in vitro) is under 0.1 µM. The EC50 in test [1] (setting [5]) is under 1 µM.

On PDK1 (inhibition of PDK1 in vitro), `C[C@H](NC(=O)c1cc(C#N)cnc1NCc1ccc(-c2cnc(N)c(CCCN)n2)cc1)c1ccc(F)cc1` [Example 70, 2-{4-[5-Amino-6-(3-amino-propyl)-pyrazin-2-yl]-benzylamino}-5-cyano-N-[(S)-1-(4-fluoro-phenyl)-ethyl]-nicotinamide] registered an IC50 of under 0.1 µM. The 50% effective concentration (EC50) in test [1] (setting [5]) was under 1 µM.

At PDK1 (setting [2]), `CNS(=O)(=O)c1cnc(NCc2ccc(-c3ccc4ncnc(N)c4c3)s2)c(C(=O)N[C@@H](C)c2ccc(F)c(F)c2)c1` [Example 8.7.4, 2-({[5-(4-aminoquinazolin-6-yl)thiophen-2-yl]methyl}amino)-N-[(1S)-1-(3,4-difluorophenyl)ethyl]-5-(methylsulfamoyl) pyridine-3-carboxamide] came in with an IC50 of under 0.1 µM. For the same molecule, in test [1] (setting [3]), the EC50 was under 1 µM.

As for `CCCS(=O)(=O)Nc1cnc(NCc2ccc(-c3ccc4ncnc(N)c4c3)s2)c(C(=O)NCc2ccc(F)c(F)c2)c1` [Example 8.6.4], the IC50 against PDK1 (setting [2]) fell in the range of 1 to 5 µM. The EC50 in test [1] (setting [3]) fell in the range of 1 to 10 µM.

Take `C[C@H](NC(=O)c1cnccc1NCc1ccc(-c2ccc3ncnc(N)c3c2)s1)c1ccc(F)c(F)c1` [Example 3.86]: on PDK1 (setting [2]), the IC50 lay within 1 to 5 µM. The EC50 in test [1] (setting [3]) is over 10 µM.

The molecule `C[C@H](NC(=O)c1nccnc1NCc1ccc(-c2ccc3ncnc(N)c3c2)s1)c1cccc(F)c1` [Example 3.69, 3-({[5-(4-aminoquinazolin-6-yl)thiophen-2-yl]methyl}amino)-N-[(1S)-1-(3-fluorophenyl)ethyl] pyrazine-2-carboxamide (TFA salt)] gave an IC50 against PDK1 (setting [2]) of under 0.1 µM. Further, the EC50 in test [1] (setting [3]) is 1 to 10 µM.

Molecule `C[C@H](NC(=O)c1cc(C#N)cnc1NCc1ccc(-c2cnc(N)c(C(=O)O)c2)cc1)c1ccc(F)cc1` [Example 148, (S)-2-amino-5-(4-((5-cyano-3-(1-(4-fluorophenyl)ethylcarbamoyl)pyridin-2-ylamino)methyl)phenyl) nicotinic acid] gave an IC50 against PDK1 (inhibition of PDK1 in vitro) of under 0.1 µM. Moreover, in test [1] (setting [5]), the EC50 was over 10 µM.

For `Nc1n[nH]c2ncc(-c3ccc(CNc4ncc(C(F)(F)F)cc4C(=O)NC[C@@H]4CCCO4)cc3)cc12` [Example 309, (S)-2-(4-(3-amino-1H-pyrazolo [3,4-b]pyridin-5-yl)benzylamino)-N-((tetrahydrofuran-2-yl)methyl)-5-(trifluoromethyl) nicotinamide], the IC50 against PDK1 (inhibition of PDK1 in vitro) lay in the range of 0.1 to 1 µM. Also, the EC50 in test [1] (Homo sapiens, PC-3, 2 h, inhibition of P308 Akt in PC-3 cells using MSD) lay within 1 to 10 µM.

On PDK1 (inhibition of PDK1 in vitro), `COCCCc1nc(-c2ccc(CNc3ncc(C#N)cc3C(=O)N[C@@H](C)c3ccc(F)cc3)cc2)cnc1N` [Example 92, 2-{4-[5-Amino-6-(3-methoxy-propyl)-pyrazin-2-yl]-benzyl-amino}-5-cyano-N-[(S)-1-(4-fluoro-phenyl)-ethyl]-nicotinamide] returned a 50% inhibitory concentration (IC50) of under 0.1 µM. Besides, the EC50 in test [1] (setting [5]) was 1 to 10 µM.

Turning to `C[C@H](NC(=O)c1cccnc1N[C@@H](COc1ccc([N+](=O)[O-])c(N)c1)c1cccc(Cl)c1)c1ccc(F)c(F)c1` [Example 16.7, 2-((R)-2-(3-amino-4-nitrophenoxy)-1-(3-chlorophenyl)ethylamino)-N-((S)-1-(3,4-difluorophenyl)ethyl)nicotinamide], the IC50 against PDK1 (setting [2]) was over 5 µM. Besides, the EC50 in test [1] (setting [3]) is over 10 µM.

For `C[C@H](NC(=O)c1cccnc1NCc1ccc(-c2ccc3ncnc(NC4COC4)c3c2)s1)c1ccc(F)c(F)c1` [Example 4.35], on PDK1 (setting [2]), the IC50 is under 0.1 µM. Moreover, the EC50 in test [1] (setting [3]) lay within 1 to 10 µM.
